Columns and labels:
Assay type in all cases: in vivo
[1] = tested on: barnyardgrass (Echinochloa crus-galli); assay: Test A greenhouse herbicide test, pre- and postemergence
Outline: (§1)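 Seeds sown in loam–sand blend got a preemergence directed soil spray of compound in non-phytotoxic solvent with surfactant. Postemergence treatment was given at 2–10 cm, one- to two-leaf stage. After ~10 d in greenhouse, injury was rated visually vs untreated controls, 0 (no effect) to 100 (complete control).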

corn (Zea mays) = assay: as above; conditions: Postemergence; for Plant response rating, Corn: 125 g ai/ha, visual rating after approx. 10 d, 0 to 100 scale (0 no effect, 100 complete control); for Corn plant response rating: 0 to 100 scale, 0 is no effect, 100 is complete control
Outline: as §1

[2] = tested on: foxtail, giant (giant foxtail, Setaria faberii); assay: as above
Outline: as §1

kochia (Kochia scoparia) = assay: as above
Outline: as §1

[3] = tested on: pigweed (Amaranthus retroflexus); assay: as above
Outline: as §1

[4] = tested on: ragweed (common ragweed, Ambrosia elatior); assay: as above
Outline: as §1

[5] = tested on: ryegrass, Italian (Italian ryegrass, Lolium multiflorum); assay: as above
Outline: as §1

[6] = tested on: wheat (Triticum aestivum); assay: as above; conditions: Postemergence; for Plant response rating, Wheat: 125 g ai/ha, 0 to 100 scale where 0 is no effect and 100 is complete control; for Wheat plant response rating: 0 to 100 scale, 0 is no effect, 100 is complete control
Outline: as §1

[7] = tested on: johnsongrass (Sorghum halepense); assay: Test C greenhouse herbicide test, pre- and postemergence
Excerpt: (§2) Seeds of plant species selected from blackgrass (Alopecurus myosuroides), ryegrass, Italian (Italian ryegrass, Lolium multiflorum), wheat (winter wheat, Triticum aestivum), galium (catchweed bedstraw, Galium aparine), corn (Zea mays), large crabgrass, large (large crabgrass, Digitaria sanguinalis), foxtail, giant (giant foxtail, Setaria faberii), johnsongrass (Sorghum halepense), lambsquarters (Chenopodium album), morningglory (Ipomoea coccinea), nutsedge, yellow (yellow nutsedge, Cyperus esculentus), pigweed (Amaranthus retroflexus), ragweed (common ragweed, Ambrosia elatior), soybean (Glycine max), barnyardgrass (Echinochloa crus-galli), oilseed rape (Brassica napus), waterhemp (common waterhemp, Amaranthus rudis), and velvetleaf (Abutilon theophrasti) were planted into a blend of loam soil and sand and treated preemergence with test chemicals formulated in a non-phytotoxic solvent mixture which included a surfactant.
(§3) At the same time, plants selected from these crop and weed species and also chickweed (common chickweed, Stellaria media), kochia (Kochia scoparia), and oat, wild (wild oat, Avena fatua), were planted in pots containing Redi-Earth® planting medium (Scotts Company, 14111 Scottslawn Road, Marysville, Ohio 43041) comprising spaghnum peat moss, vermiculite, wetting agent and starter nutrients and treated with postemergence applications of test chemicals formulated in the same manner. Plants ranged in height from 2 to 18 cm (1- to 4-leaf stage) for postemergence treatments. Treated plants and controls were maintained in a greenhouse for 13 to 15 d, after which time all species were compared to controls and visually evaluated. Plant response ratings, summarized in Table C, are based on a scale of 0 to 100 where 0 is no effect and 100 is complete control. A dash (-) response means no test result.

[8] = tested on: waterhemp (common waterhemp, Amaranthus rudis); assay: as above
Excerpt: as §2, §3

[9] = Postemergence, 125 g ai/ha, visual rating after approx. 10 d, 0 to 100 scale (0 no effect, 100 complete control)
[10] = Postemergence, 500 g ai/ha, 0 to 100 scale, 0 is no effect, 100 is complete control
[11] = Preemergence, 125 g ai/ha, 0 to 100 scale where 0 is no effect and 100 is complete control
[12] = Preemergence, 500 g ai/ha, 0 to 100 scale, 0 no effect, 100 complete control
[13] = Postemergence, 125 g ai/ha, 0 to 100 scale where 0 is no effect and 100 is complete control
[14] = Postemergence, 31 g ai/ha, 0 to 100 scale (0 no effect, 100 complete control)
[15] = Postemergence, 125 g ai/ha, scale 0 to 100, 0 is no effect, 100 is complete control
[16] = Postemergence, 250 g ai/ha, scale 0 to 100, 0 no effect, 100 complete control, 13 to 15 d
[17] = postemergence, 62 g ai/ha, scale 0 to 100, 0 no effect, 100 complete control
[18] = Preemergence, 31 g ai/ha, scale 0 to 100, 0 is no effect, 100 is complete control
[19] = Preemergence, 62 g ai/ha, scale 0 to 100, 0 is no effect, 100 is complete control
[20] = Preemergence, 125 g ai/ha, scale 0 to 100, 0 is no effect, 100 is complete control
[21] = Preemergence, 250 g ai/ha, scale 0 to 100, 0 no effect, 100 complete control
[22] = Postemergence, 1000 g ai/ha, 0 to 100 scale, 0 is no effect, 100 is complete control
[23] = Preemergence, 1000 g ai/ha, 0 to 100 scale, 0 no effect, 100 complete control

SMILES: Cc1ccc2sc(C)c(-c3c(OC(=O)C(C)(C)C)c(C)nn(C)c3=O)c2c1 [Compound 26]
- Plant response rating, Barnyardgrass [1, 9]: 10
- Barnyardgrass plant response rating [1, 10]: 30
- Barnyardgrass plant response rating [1, 11]: 0
- Plant response rating, Barnyardgrass [1, 12]: 10
- Plant response rating, Corn (corn (Zea mays)): 0
- Corn plant response rating (corn (Zea mays); 500 g ai/ha): 0
- Plant response rating, Foxtail, Giant [2, 9]: 10
- Foxtail, Giant plant response rating [2, 10]: 60
- Foxtail, Giant plant response rating [2, 11]: 30
- Plant response rating, Foxtail, Giant [2, 12]: 50
- Plant response rating, Kochia (kochia (Kochia scoparia); [9]): 80
- Kochia plant response rating (kochia (Kochia scoparia); [10]): 90
- Kochia plant response rating (kochia (Kochia scoparia); [11]): 30
- Plant response rating, Kochia (kochia (Kochia scoparia); [12]): 30
- Plant response rating, Pigweed [3, 9]: 80
- Pigweed plant response rating [3, 10]: 90
- Pigweed plant response rating [3, 11]: 80
- Plant response rating, Pigweed [3, 12]: 100
- Plant response rating, Ragweed [4, 9]: 60
- Ragweed plant response rating [4, 10]: 90
- Ragweed plant response rating [4, 11]: 20
- Plant response rating, Ragweed [4, 12]: 40
- Plant response rating, Ryegrass, Italian [5, 13]: 60
- Ryegrass, Italian plant response rating [5, 10]: 90
- Ryegrass, Italian plant response rating [5, 11]: 30
- Plant response rating, Ryegrass, Italian [5, 12]: 70
- Plant response rating, Wheat [6]: 0
- Wheat plant response rating ([6]; 500 g ai/ha): 0
- Johnsongrass plant response rating [7, 14]: 5
- Plant response rating, Johnsongrass [7, 15]: 5
- Plant response rating, Johnsongrass [7, 16]: 5
- Johnsongrass plant response rating [7, 17]: 5
- Waterhemp plant response rating [8, 14]: 75
- Plant response rating, Waterhemp [8, 15]: 85
- Plant response rating, Waterhemp [8, 16]: 95
- Waterhemp plant response rating [8, 17]: 85

SMILES: Cc1ccc2ccccc2c1-c1c(O)c(I)nn(C)c1=O [Compound 29]
- Plant response rating, Barnyardgrass [1, 9]: 70
- Barnyardgrass plant response rating [1, 10]: 80
- Barnyardgrass plant response rating [1, 11]: 70
- Plant response rating, Barnyardgrass [1, 12]: 90
- Plant response rating, Corn (corn (Zea mays)): 10
- Corn plant response rating (corn (Zea mays); 500 g ai/ha): 40
- Plant response rating, Foxtail, Giant [2, 9]: 80
- Foxtail, Giant plant response rating [2, 10]: 90
- Foxtail, Giant plant response rating [2, 11]: 80
- Plant response rating, Foxtail, Giant [2, 12]: 90
- Plant response rating, Kochia (kochia (Kochia scoparia); [9]): 80
- Kochia plant response rating (kochia (Kochia scoparia); [10]): 90
- Kochia plant response rating (kochia (Kochia scoparia); [11]): 60
- Plant response rating, Kochia (kochia (Kochia scoparia); [12]): 100
- Plant response rating, Pigweed [3, 9]: 90
- Pigweed plant response rating [3, 10]: 100
- Pigweed plant response rating [3, 11]: 100
- Plant response rating, Pigweed [3, 12]: 100
- Plant response rating, Ragweed [4, 9]: 90
- Ragweed plant response rating [4, 10]: 100
- Ragweed plant response rating [4, 11]: 90
- Plant response rating, Ragweed [4, 12]: 90
- Plant response rating, Ryegrass, Italian [5, 13]: 90
- Ryegrass, Italian plant response rating [5, 10]: 100
- Ryegrass, Italian plant response rating [5, 11]: 80
- Plant response rating, Ryegrass, Italian [5, 12]: 90
- Plant response rating, Wheat [6]: 40
- Wheat plant response rating ([6]; 500 g ai/ha): 60
- Johnsongrass plant response rating [7, 14]: 0
- Plant response rating, Johnsongrass [7, 16]: 25
- Plant response rating, Johnsongrass [7, 18]: 10
- Plant response rating, Johnsongrass [7, 19]: 5
- Plant response rating, Johnsongrass [7, 20]: 25
- Johnsongrass plant response rating [7, 21]: 20
- Johnsongrass plant response rating [7, 17]: 5
- Waterhemp plant response rating [8, 14]: 70
- Plant response rating, Waterhemp [8, 15]: 80
- Plant response rating, Waterhemp [8, 16]: 98
- Plant response rating, Waterhemp [8, 19]: 100
- Plant response rating, Waterhemp [8, 20]: 100
- Waterhemp plant response rating [8, 21]: 100
- Waterhemp plant response rating [8, 17]: 80

SMILES: CCc1ccc2ccccc2c1-c1c(O)c(C)nn(C)c1=O [Compound 32]
- Barnyardgrass plant response rating [1, 22]: 90
- Plant response rating, Barnyardgrass [1, 23]: 100
- Corn plant response rating (corn (Zea mays); 1000 g ai/ha): 50
- Foxtail, Giant plant response rating [2, 22]: 90
- Plant response rating, Foxtail, Giant [2, 23]: 100
- Kochia plant response rating (kochia (Kochia scoparia); [22]): 100
- Plant response rating, Kochia (kochia (Kochia scoparia); [23]): 100
- Pigweed plant response rating [3, 22]: 100
- Plant response rating, Pigweed [3, 23]: 100
- Ragweed plant response rating [4, 22]: 100
- Plant response rating, Ragweed [4, 23]: 90
- Ryegrass, Italian plant response rating [5, 22]: 100
- Plant response rating, Ryegrass, Italian [5, 23]: 100
- Wheat plant response rating ([6]; 1000 g ai/ha): 100
- Johnsongrass plant response rating [7, 14]: 5
- Plant response rating, Johnsongrass [7, 15]: 15
- Plant response rating, Johnsongrass [7, 16]: 35
- Plant response rating, Johnsongrass [7, 18]: 0
- Plant response rating, Johnsongrass [7, 19]: 0
- Plant response rating, Johnsongrass [7, 20]: 10
- Johnsongrass plant response rating [7, 21]: 45
- Johnsongrass plant response rating [7, 17]: 25
- Waterhemp plant response rating [8, 14]: 70
- Plant response rating, Waterhemp [8, 15]: 85
- Plant response rating, Waterhemp [8, 16]: 98
- Plant response rating, Waterhemp [8, 19]: 100
- Plant response rating, Waterhemp [8, 20]: 100
- Waterhemp plant response rating [8, 21]: 100
- Waterhemp plant response rating [8, 17]: 80

SMILES: Cc1cc2ccccc2c(-c2c(O)c(C)nn(C)c2=O)c1C [Compound 34]
- Plant response rating, Barnyardgrass [1, 9]: 30
- Barnyardgrass plant response rating [1, 10]: 90
- Barnyardgrass plant response rating [1, 11]: 20
- Plant response rating, Barnyardgrass [1, 12]: 80
- Plant response rating, Corn (corn (Zea mays)): 0
- Corn plant response rating (corn (Zea mays); 500 g ai/ha): 0
- Plant response rating, Foxtail, Giant [2, 9]: 30
- Foxtail, Giant plant response rating [2, 10]: 90
- Foxtail, Giant plant response rating [2, 11]: 40
- Plant response rating, Foxtail, Giant [2, 12]: 90
- Plant response rating, Kochia (kochia (Kochia scoparia); [9]): 70
- Kochia plant response rating (kochia (Kochia scoparia); [10]): 80
- Kochia plant response rating (kochia (Kochia scoparia); [11]): 30
- Plant response rating, Kochia (kochia (Kochia scoparia); [12]): 60
- Plant response rating, Pigweed [3, 9]: 90
- Pigweed plant response rating [3, 10]: 90
- Pigweed plant response rating [3, 11]: 90
- Plant response rating, Pigweed [3, 12]: 100
- Plant response rating, Ragweed [4, 9]: 90
- Ragweed plant response rating [4, 10]: 100
- Ragweed plant response rating [4, 11]: 80
- Plant response rating, Ragweed [4, 12]: 90
- Plant response rating, Ryegrass, Italian [5, 13]: 100
- Ryegrass, Italian plant response rating [5, 10]: 100
- Ryegrass, Italian plant response rating [5, 11]: 100
- Plant response rating, Ryegrass, Italian [5, 12]: 100
- Plant response rating, Wheat [6]: 20
- Wheat plant response rating ([6]; 500 g ai/ha): 40
- Johnsongrass plant response rating [7, 14]: 5
- Plant response rating, Johnsongrass [7, 15]: 5
- Plant response rating, Johnsongrass [7, 16]: 5
- Plant response rating, Johnsongrass [7, 18]: 0
- Plant response rating, Johnsongrass [7, 19]: 0
- Plant response rating, Johnsongrass [7, 20]: 0
- Johnsongrass plant response rating [7, 21]: 20
- Johnsongrass plant response rating [7, 17]: 5
- Waterhemp plant response rating [8, 14]: 85
- Plant response rating, Waterhemp [8, 15]: 90
- Plant response rating, Waterhemp [8, 16]: 98
- Plant response rating, Waterhemp [8, 19]: 100
- Plant response rating, Waterhemp [8, 20]: 100
- Waterhemp plant response rating [8, 21]: 100
- Waterhemp plant response rating [8, 17]: 85
